In patent US20240238379A1, “Compositions and Methods for the Prevention and Treatment of Stress-Induced Fear, Depressive-Like and Anxiety-Like Behavior” (The Trustees of Columbia University in the City of New York, priority 2021, published 2024):

Assays:
129S6/SvEv mice [1] = experiment: Contextual fear conditioning (CFC) freezing; assay type: in vivo; conditions: for Freezing upon CFC re-exposure, (R,S)-ketamine versus saline: female mice, IP 10 mg/kg one week before CFC
Method: Saline, (R,S)-ketamine (10 mg/kg), or Bay 55-9837 (2.5 or 5 mg/kg) was administered 1 week prior to 3-shock contextual fear conditioning (CFC) stress in female 129S6/SvEv mice. Five days later, mice were assayed for fear, behavioral despair, locomotion, exploratory behavior, and hyponcophagia.
Male 129S6/SvEv mice were administered the same behavioral paradigm as described in Example 1. […] There was no effect of drug on immobility time during FST Day 1.
Female 129S6/SvEv mice were given a single injection of saline, (R,S)-ketamine (10 mg/kg), or Bay 55-9837 (2.5 mg/kg) 5 minutes after 3-shock CFC training.
Male 129S6/SvEv mice were administered the same behavioral paradigm as in Example 3. […] Similarly, in the NSF, Bay 55-9837, but not (R,S)-ketamine suppressed latency to feed in the OF when compared with saline controls.
Female 129S6/SEv mice were administered a single injection of saline of Bay 55-9837 (2.5 mg/kg) and placed in Piezo sleep boxes. One week later, mice were administered 3-shock CFC training or context exposure and again placed back into Piezo sleep boxes. Five days later, mice were re-exposed to the training context. […] During CFC training, there was no effect of drug. […] There was a significant effect of drug and stress as well as a drug x stress interaction.
(§1) Female 129S6/SvEv mice were administered an intracerebroventricular infusion of artificial cerebrospinal fluid, PACAP (6-38) (VPAC2 antagonist), or Bay 55-9837. Five minutes after, mice were given an IP injection of saline or (R,S)-ketamine (10 mg/kg). One week later, mice were administered 3-shock CFC training. Five days subsequently, mice were tested in CFC re-exposure and the FST. […] Upon CFC re-exposure, there was a significant group x drug interaction. […] In the PACAP (6-38) group, the prophylactic effect of (R,S)-ketamine was blocked.

129S6/SvEv mice [2] = experiment: Forced swim test (FST); assay type: in vivo; conditions: female mice
Method: as §1, with “blocked. […]” for “blocked.”

Row | Molecule | Freezing upon CFC re-exposure, (R,S)-ketamine versus saline (129S6/SvEv mice [1]; PACAP(6-38) ICV group) | Freezing upon CFC re-exposure, (R,S)-ketamine versus saline (129S6/SvEv mice [1]; Vehicle ICV group) | Freezing during CFC re-exposure (129S6/SvEv mice [1]; male mice, same paradigm as Example 3) | Freezing during CFC training (129S6/SvEv mice [1]; male mice, same paradigm as Example 3 (single injection 5 minutes after 3-shock CFC training)) | Behavioral despair on FST Day 2 (129S6/SvEv mice [2]; 1 week prior to 3-shock CFC stress, 10 mg/kg) | Immobility time on Day 2 of the FST (129S6/SvEv mice [2]; 5 minutes after 3-shock CFC training, 10 mg/kg) | Immobility on FST Day 2 compared with Vehicle/saline (129S6/SvEv mice [2]; ICV Vehicle then IP (R,S)-ketamine 10 mg/kg) | Prophylactic effect of (R,S)-ketamine on FST Day 2 (129S6/SvEv mice [2]; ICV PACAP (6-38) then IP (R,S)-ketamine 10 mg/kg)
1 | CNC1(c2ccccc2Cl)CCCCC1=O (racemic) [(R,S)-ketamine] | not significantly different | not significantly different | did not significantly alter | did not significantly alter | reduced | significantly reduced | significantly lower | –
2 | PACAP (6-38) | – | – | – | – | – | – | – | blocked
